Experiments:
[1] = system: M1 receptors (vas deferens); assay: Antagonism against M1 receptors in an isolated rabbit vas deferens; conditions: in vitro, agonist McN A-343, 10 min
Protocol: 1) Tests for antagonism against the M1 receptors in an isolated rabbit vas deferens
These tests were performed according to an ordinary method. A male Japanese albino rabbit (weighing bout 3 kg) was killed by exsanguination from a femoral artery under anesthesia with pentobarbital, and the vasa deferentia were excised. Portions (1 cm long) thereof adjacent to the prostate were used as vas deferens preparations. A preparation was longitudinally suspended in a Magnus tube filled with 20 ml of Krebs-Henseleit nutrient solution [gassed with 95% O2 -5% CO2 and kept at 32° C.; containing […] yohimbine (a2 antagonist)] with an initial tension of 1.0 g. The tension of the preparation was recorded isometrically. After the preparation was equilibrated for 30 minutes, electrical stimuli (0.5 ms, 30 V) were applied thereto by means of a bipolar electrode to induce contractions at intervals of 20 seconds. […] Responses to McN A-343 were expressed as percentages based on the amount of contraction before administration of McN A-343. The antagonistic potency (KB value) of the test compound was determined from the degree of shift of the dose-response curve obtained by treatment with the test compound.

muscarinic M3 receptor = muscarinic M3 receptor (Rattus norvegicus, UniProt P08483); assay: Intravesical bladder pressure in rats; assay type: in vivo; set-up: from tissue; conditions: i.v., 25% inhibition of peak intravesical bladder pressure
Protocol: Tests for antagonism against muscarinic M3 receptor (in vivo)
4) Tests for intravesical bladder pressure in rats
These tests were performed according to the method of Maggi et al. (Drug Dev. Res. 10: 157-170, 1987). Briefly, eight- to ten-weeks-old male rats of the Sprague-Dawley strain, weighing 330-370 g, were anesthetized by subcutaneous administration of urethane (1 g/kg) and α-chloralose (50 mg/kg), and the right jugular vein was cannulated for drug administration. The body temperature was kept constant by means of a heating pad maintained at 37° C. Through a midline incision of the abdomen, the urinary bladder was exposed and emptied of urine by the application of a slight manual pressure. A 20-gauge needle was inserted through the apex of the bladder dome by 3-4 mm into its lumen. The needle had previously been connected to a pressure transducer and an infusion pump by means of polyethylene tubing and the whole system filled with saline. After a 30-minutes equilibration period at zero volume, saline was infused (2.8 ml/hr) until a coordinated sustained contraction, reflecting the peak intravesical bladder pressure, occured. The bladder was then emptied manually and allowed to rest for five minutes. PvesP was defined as the difference between the maximum and resting bladder pressures. This procedure was repeated at least five times and the evaluation of a test compound was carried out in the animals in which a stable peak intravesical bladder pressure was recorded. The drug potency (ID25 ) was determined after intravenous administration of the test compound during the rest period. Five minutes after drug administration, the infusion of saline was started to induce micturition contraction and the peak intravesical bladder pressure was recorded. The depression in peak intravesical bladder pressure was expressed as a percent of the control peak intravesical bladder pressure observed before administration of the test compound. The ID25 value, calculated by probit analysis, was defined as the drug dose that inhibited the control peak intravesical bladder pressure by 25%.

muscarinic M3 receptor, sequence (P08483 whole entry): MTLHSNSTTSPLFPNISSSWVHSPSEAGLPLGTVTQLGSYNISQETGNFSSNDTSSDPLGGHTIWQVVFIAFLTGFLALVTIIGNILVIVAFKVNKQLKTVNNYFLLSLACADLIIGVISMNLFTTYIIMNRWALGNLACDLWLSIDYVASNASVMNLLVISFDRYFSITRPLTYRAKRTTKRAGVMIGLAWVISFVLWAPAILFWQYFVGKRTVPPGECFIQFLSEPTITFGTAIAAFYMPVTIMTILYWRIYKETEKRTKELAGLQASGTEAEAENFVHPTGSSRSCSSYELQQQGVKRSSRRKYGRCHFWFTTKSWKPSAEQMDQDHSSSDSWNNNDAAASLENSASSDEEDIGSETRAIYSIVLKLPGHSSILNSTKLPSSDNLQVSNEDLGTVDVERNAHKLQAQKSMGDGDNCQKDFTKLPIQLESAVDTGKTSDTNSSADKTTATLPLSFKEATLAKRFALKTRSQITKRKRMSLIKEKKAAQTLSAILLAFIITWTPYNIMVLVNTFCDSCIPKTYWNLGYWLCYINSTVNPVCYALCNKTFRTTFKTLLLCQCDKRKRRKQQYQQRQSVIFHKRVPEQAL

For `CC(C)=CCCN1CCC(NC(=O)C(O)(c2ccccc2)C2CCC2)CC1` (centres unmarked) [Example 1, N-[1-(4-methyl-3-pentenyl)-piperidin-4-yl]-2-cyclobutyl-2-hydroxy-2-phenylacetamide], the Kb [1] was 120 nM and the “Urinating contraction ID25” value (muscarinic M3 receptor) was 1.3 mg/kg i.v.
